Experiments:
[1] = target: T1, human blood platelet PDE5 (Homo sapiens, UniProt O76074); test: PDE5 enzyme inhibition activity test (scintillation proximity); format: biochemical
T1 construct: obtained by suitably treating various tissues and separating the enzyme with FPLC; from tissue; host or cells: human blood platelets
Procedure: (§1) More specifically, PDE5 and PDE3 were obtained from human blood platelet, and PDE6 was separated from bovine retina. Upon enzyme was separated out, the enzyme inhibition activity test would be carried out immediately. The said enzyme inhibition activity test was performed by directly detecting the scintillation proximity of AMP/GMP using TRKQ7100 and TRKQ7090 kits, which was generally as follows. In the presence of different concentrations of inhibitor and a small amount of substrate, 10 μl of buffer (50 mM Tris/HCl PH 7.5, 8.3 mM MgCl2, 1.7 mM EGTA) was added, and then water was added to a final volume of 100 μl. The reaction was initiated with a fixed amount of enzyme, incubated at 30° C. for 30 min, and then quenched with 50 μl of yttrium silicate beads comprising zinc sulphate. After shaken for 20 min, the reaction mixture was put in dark and settled for 30 min, and then readed on a BECKMAN LS6500 MULTI-PURPOSE SCINTILLATION COUNTER.

PDE6 in bovine retina = target: T2, PDE6 in bovine retina (Bos taurus, UniProt P11541+P23439); test: PDE6 enzyme inhibition activity test (scintillation proximity); format: biochemical; details: for IC50: PDE6 separated from bovine retina, read-out: PDE6 IC50; for PDE6 IC50/PDE5 IC50: selectivity, ratio of IC50 PDE6/IC50 PDE5
T2 construct: obtained by suitably treating various tissues and separating the enzyme with FPLC; from tissue; host or cells: bovine retina
T2 sequence (P11541 2-856 limits assumed): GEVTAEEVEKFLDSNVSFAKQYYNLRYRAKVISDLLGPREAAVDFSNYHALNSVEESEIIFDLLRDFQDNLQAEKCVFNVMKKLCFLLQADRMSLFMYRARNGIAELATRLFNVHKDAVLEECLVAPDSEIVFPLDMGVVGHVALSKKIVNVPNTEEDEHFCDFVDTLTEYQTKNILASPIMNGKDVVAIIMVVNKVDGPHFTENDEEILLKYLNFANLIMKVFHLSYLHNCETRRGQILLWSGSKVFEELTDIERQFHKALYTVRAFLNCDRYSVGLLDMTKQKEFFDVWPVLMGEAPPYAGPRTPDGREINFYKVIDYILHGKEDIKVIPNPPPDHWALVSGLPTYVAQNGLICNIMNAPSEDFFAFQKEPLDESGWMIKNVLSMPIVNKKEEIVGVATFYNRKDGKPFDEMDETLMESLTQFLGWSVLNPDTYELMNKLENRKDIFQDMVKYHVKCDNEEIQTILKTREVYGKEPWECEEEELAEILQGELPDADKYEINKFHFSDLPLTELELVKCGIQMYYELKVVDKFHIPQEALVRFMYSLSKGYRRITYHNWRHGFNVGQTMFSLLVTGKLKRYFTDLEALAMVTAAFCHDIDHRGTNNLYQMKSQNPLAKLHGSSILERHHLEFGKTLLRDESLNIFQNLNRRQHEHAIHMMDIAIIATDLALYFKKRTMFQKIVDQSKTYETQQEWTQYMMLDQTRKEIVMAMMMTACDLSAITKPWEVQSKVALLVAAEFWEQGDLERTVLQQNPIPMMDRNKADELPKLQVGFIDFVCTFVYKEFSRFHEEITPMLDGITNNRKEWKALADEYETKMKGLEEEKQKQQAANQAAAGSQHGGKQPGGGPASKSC
T2 sequence (P23439 2-850 limits assumed): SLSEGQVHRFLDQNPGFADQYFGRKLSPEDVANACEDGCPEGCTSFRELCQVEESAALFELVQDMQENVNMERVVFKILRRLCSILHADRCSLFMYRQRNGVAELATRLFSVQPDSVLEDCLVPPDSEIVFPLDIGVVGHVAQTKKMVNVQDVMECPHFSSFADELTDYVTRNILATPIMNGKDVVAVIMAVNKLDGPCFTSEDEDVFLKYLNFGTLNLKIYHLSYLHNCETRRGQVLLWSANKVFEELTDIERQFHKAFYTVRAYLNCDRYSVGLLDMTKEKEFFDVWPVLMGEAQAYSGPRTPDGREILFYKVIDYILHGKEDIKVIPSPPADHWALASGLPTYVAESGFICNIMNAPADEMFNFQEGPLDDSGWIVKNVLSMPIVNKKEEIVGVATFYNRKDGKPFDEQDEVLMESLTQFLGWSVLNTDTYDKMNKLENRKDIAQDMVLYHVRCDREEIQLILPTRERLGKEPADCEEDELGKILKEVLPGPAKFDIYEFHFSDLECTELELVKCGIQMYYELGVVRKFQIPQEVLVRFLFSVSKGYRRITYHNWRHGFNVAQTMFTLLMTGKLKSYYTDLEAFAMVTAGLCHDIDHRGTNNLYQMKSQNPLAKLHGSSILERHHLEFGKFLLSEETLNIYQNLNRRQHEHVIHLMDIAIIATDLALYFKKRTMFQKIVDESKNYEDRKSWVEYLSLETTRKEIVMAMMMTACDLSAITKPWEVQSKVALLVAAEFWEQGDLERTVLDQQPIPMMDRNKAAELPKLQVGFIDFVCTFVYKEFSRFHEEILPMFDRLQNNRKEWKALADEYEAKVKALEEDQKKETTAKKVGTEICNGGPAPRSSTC
Procedure: as §1

| IC50 ([1]; PDE5 table) | IC50 (PDE6 in bovine retina) | PDE6 IC50/PDE5 IC50 (PDE6 in bovine retina) | IC50 ([1]; as repeated in the PDE6 table) | SMILES |
| --- | --- | --- | --- | --- |
| 3.69 nM |  |  |  | CCCOc1ccc(S(=O)(=O)NC2C(O)OC(CO)C(O)C2O)cc1-c1nc(CC)c(CC)c(=O)[nH]1 (stereo not shown) [Example 208, 5,6-Diethyl-2-(2-n-propoxy-5-((tetrahydro-2,4,5-trihydroxy-6-(hydroxymethyl)-2H-pyran-3-ylamino)sulfonyl)phenyl]pyrimid-4(3H)-one] |
| 1.19 nM | 8.19 nM | 6.9 | 1.19 nM | CCCOc1ccc(NC(=O)C2CC(O)CN2C(=O)OC(C)(C)C)cc1-c1nc(CC)c(CC)c(=O)[nH]1 (stereo not shown) [Example 57, N-(3-(1,6-dihydro-4,5-diethyl-6-oxopyrimidin-2-yl)-4-propoxyphenyl)-1-t-butyloxycarbonyl-4-hydroxyprolylamide] |
| 3.72 nM | 42.8 nM | 11.5 | 3.72 nM | CCCOc1ccc(NC(=S)NCC)cc1-c1nc(CC)c(CC)c(=O)[nH]1 [Example 43, 1-(3-(4,5-Diethyl-1,6-dihydro-6-oxopyrimidin-2-yl)-4-n-propoxyphenyl)-3-ethylthiourea] |
| 1.13 nM | 20.9 nM | 15.9 | 1.31 nM | CCCOc1ccc(S(=O)(=O)N2CCN(CCO)CC2)cc1-c1nc(CC)c(CC)c(=O)[nH]1 [Example 133, 5,6-diethyl-2-(2-n-propoxy-5-(4-hydroxyethyl-1-piperazinylsulfonyl)phenyl]pyrimid-4(3H)-one] |
| 2.04 nM | 8.19 nM | 4.0 | 2.04 nM | CCCOc1ccc(C(=O)N2CCCCC2)cc1-c1nc(CC)c(CC)c(=O)[nH]1 [Example 60, (piperid-1-yl)(3-(4,5-diethyl-1,6-dihydro-6-oxopyrimidin-2-yl)-4-n-propoxy)benzophenone] |
| 1.79 nM | 54.9 nM | 30.7 | 1.79 nM | CCCOc1ccc(S(=O)(=O)NC(CC(N)=O)C(=O)O)cc1-c1nc(CC)c(CC)c(=O)[nH]1 (stereo not shown) [Example 126, 2-(N-(3-(4,5-diethyl-1,6-dihydro-6-oxopyrimidin-2-yl)-4-n-propoxyphenyl)sulfonyl)amino-3-aminoformylpropionic acid] |
| 3.29 nM |  |  |  | CCCOc1ccc(-c2nc(CC)c(CC)c(=O)[nH]2)cc1-c1nc(CC)c(CC)c(=O)[nH]1 [Example 87, 2,2′-(4-n-Propoxy-1,3-phenylene)bis(5,6-diethylpyrimid-4(3H)-one)] |
| 0.54 nM |  |  |  | CCCOc1ccc(C(=O)NC(C)C(N)=O)cc1-c1nc(CC)c(CC)c(=O)[nH]1 (stereo not shown) [Example 155, N-(1-aminoformylethyl)-3-(4,5-diethyl-1,6-dihydro-6-oxopyrimidin-2-yl)-4-n-propoxybenzamide] |
| 1.8 nM |  |  |  | CCCOc1ccc(C(=O)NC(CCCNC(=N)N)C(=O)O)cc1-c1nc(CC)c(CC)c(=O)[nH]1 (stereo not shown) [Example 149, 2-(3-(4,5-diethyl-1,6-dihydro-6-oxopyrimidin-2-yl)-4-n-propoxybenzamido)-5-guanidylvaleric acid] |
| 6.23 nM |  |  |  | CCCOc1ccc(C(=O)NC(CCCN)C(=O)O)cc1-c1nc(CC)c(CC)c(=O)[nH]1 (stereo not shown) [Example 210, 2-(3-(4,5-diethyl-1,6-dihydro-6-oxopyrimidin-2-yl)-4-n-propoxybenzamido)-5-aminovaleric acid] |
| 0.83 nM |  |  |  | CCCOc1ccc(C(=O)NCCCS(=O)(=O)N2CCN(C)CC2)cc1-c1nc(CC)c(CC)c(=O)[nH]1 [Example 216, 3-(4,5-diethyl-1,6-dihydro-6-oxopyrimidin-2-yl)-N-(4-methyl-1-piperazinylsulfonylpropyl)-4-n-propoxybenzamide] |
| 0.76 nM |  |  |  | CCCOc1ccc(S(=O)(=O)NC(CCCNC(N)=O)C(=O)O)cc1-c1nc(CC)c(CC)c(=O)[nH]1 (stereo not shown) [Example 118, 2-(N-(3-(4,5-diethyl-1,6-dihydro-6-oxopyrimidin-2-y1)-4-n-propoxyphenyl)sulfonyl)amino-5-ureavaleric acid] |
| 6.31 nM |  |  |  | CCCOc1ccc(S(=O)(=O)NC(CCCN)C(=O)O)cc1-c1nc(CC)c(CC)c(=O)[nH]1 (stereo not shown) [Example 119, 2-(N-(3-(4,5-diethyl-1,6-dihydro-6-oxopyrimidin-2-yl)-4-n-propoxyphenyl)sulfonyl)amino-5-aminovaleric acid] |
| 0.9 nM |  |  |  | CCCOc1ccc(C(=O)NC2C(O)OC(CO)C(O)C2O)cc1-c1nc(CC)c(CC)c(=O)[nH]1 (stereo not shown) [Example 211] |
|  | 22.2 nM |  |  | CCCOc1ccc(NC(=O)CN2CCN(C)CC2)cc1-c1nc(CC)c(CC)c(=O)[nH]1 [Example 179, N-(3-(4,5-diethyl-1,6-dihydro-6-oxopyrimidin-2-yl)-4-n-propoxyphenyl)-2-(4-methylpiperazin-1-yl)acetamide] |
| 0.88 nM |  |  |  | CCCOc1ccc(C(=O)NCCCS(N)(=O)=O)cc1-c1nc(CC)c(CC)c(=O)[nH]1 [Example 215, 3-(3-(4,5-diethyl-1,6-dihydro-6-oxopyrimidin-2-yl)-4-n-propoxybenzamido)propylsulphonamide] |
| 0.64 nM |  |  |  | CCCOc1ccc(C(=O)NC(CCCNC(N)=O)C(=O)O)cc1-c1nc(CC)c(CC)c(=O)[nH]1 (stereo not shown) [Example 209, 2-(3-(4,5-diethyl-1,6-dihydro-6-oxopyrimidin-2-yl)-4-n-propoxybenzamido)-5-ureavaleric acid] |
| 1.8 nM |  |  |  | CCCOc1ccc(C(=O)NCCS(=O)(=O)N(CC)CC)cc1-c1nc(CC)c(CC)c(=O)[nH]1 [Example 214, 3-(4,5-diethyl-1,6-dihydro-6-oxopyrimidin-2-yl)-N-(N,N-diethylaminosulfonylethyl)-4-n-propoxybenzamide] |
| 8.63 nM |  |  |  | CCCOc1ccc(C2OC(CO)C(O)C(O)C2O)cc1-c1nc(CC)c(CC)c(=O)[nH]1 (stereo not shown) [Example 218, 5,6-Diethyl-2-(5-(tetrahydro-3,4,5-trihydroxy-6-(hydroxymethyl)-2H-pyran-2-yl)-2-n-propoxyphenyl)pyrimid-4(3H)-one] |
| 2.8 nM |  |  |  | CCCOc1ccc(C(=O)NCCS(=O)(=O)N2CCN(C)CC2)cc1-c1nc(CC)c(CC)c(=O)[nH]1 [Example 213, 3-(4,5-diethyl-1,6-dihydro-6-oxopyrimidin-2-yl)-N-(4-methyl-1-piperazinylsulfonylethyl)-4-n-propoxybenzamide] |
| 0.79 nM |  |  |  | CCCOc1ccc(C(=O)NCCS(N)(=O)=O)cc1-c1nc(CC)c(CC)c(=O)[nH]1 [Example 212, 2-(3-(4,5-diethyl-1,6-dihydro-6-oxopyrimidin-2-yl)-4-n-propoxybenzamido)ethylsulphonamide] |
| 0.54 nM |  |  |  | CCCOc1ccc(C(=O)NC(C)C(=O)OC)cc1-c1nc(CC)c(CC)c(=O)[nH]1 (stereo not shown) [Example 151, methyl 2-(3-(4,5-diethyl-1,6-dihydro-6-oxopyrimidin-2-yl)-4-n-propoxybenzamido)propionate] |

From patent US8871777B2, “Phenylpyrimidone compounds, the pharmaceutical compositions, preparation methods and uses thereof” (Topharman Shanghai Co., Ltd., priority 2008, dated 2014)
